Assay results from patent US8153614B2, “Treatment of osteoarthritis” (Glycoscience Laboratories, Inc., priority 2006, dated 2012).

System: C57BL/6 mice, which spontaneously develop osteoarthritis
Assay: Macroscopic examination (India ink) of knee joint cartilage in the spontaneous osteoarthritis mouse model
Format: in vivo
Details: oral HA4 100 mg/10 ml/kg once daily for 2 weeks
Procedure: In this example, HA4 was administered to C57BL/6 mice, which spontaneously develop osteoarthritis, to examine effects thereof.
20-week-old male C57BL/6 mice were purchased from Charles River Laboratories Japan, Inc., and animals which developed osteoarthritis were used. The animals were divided into the negative control (treated with physiological saline) group and the oral HA4 (100 mg/10 ml/kg) treated group.
In this example, 10 mg/ml HA4 was prepared. Specifically, HA4 was prepared by the method of Tawada et al. (Tawada A, Masa T, Oonuki Y, Watanabe A, Matsuzaki Y, Asari A. Large-scale preparation, purification, and characterization of hyaluronan oligosaccharides from 4-mers to 52-mers. Glycobiology. 2002; 12(7): 421-6.), and the concentration was adjusted with physiological saline. Furthermore, physiological saline was prepared as a control.
In this example, the test substance or physiological saline was orally given to mice which developed osteoarthritis using an oral sonde once daily for 2 weeks.
Osteoarthritis curing effects were determined macroscopically. […] For this evaluation method, refer to Chang D G, Iverson E P, Schinagl R M, Sonoda M, Amiel D, Coutts R D, Sah R L. Quantitation and localization of cartilage degeneration following the induction of osteoarthritis in the rabbit knee. […]

Substance: tetrasaccharide hyaluronan [HA4]
- Therapeutic effects against osteoarthritis: therapeutic effects against osteoarthritis were confirmed
- MEAN score (remaining India ink) (saline control mean 4.8): MEAN 1.4
